Experimental findings from US11564923B2, “Compounds and pharmaceutical compositions thereof for the treatment of inflammatory disorders” (Galapagos NV, priority 2017, dated 2023) are described below.

Structures are written as SMILES.

Test [1] deals with IFNα stimulation, Phospho-STAT1 on CD4+ cells in human whole blood. In words: Human whole blood assay (hWBA), IFNα stimulation. The conditions noted are these: Universal type I IFN 1000 U/mL, pSTAT1 on CD4+ cells, read-out: IFN α IC50. It counts as cell-based. As for the experimental part:
A flow cytometry analysis is performed to establish JAK1 and TYK2 compound potency ex vivo using human whole blood. Therefore, blood is taken from human volunteers who gave informed consent, then equilibrated for 30 min at 37° C. under gentle rocking and aliquoted in Eppendorf tubes. Compound is added at different concentrations and incubated at 37° C. for 30 min under gentle rocking and subsequently stimulated for 20 min at 37° C. under gentle rocking with interleukin 6 (IL-6) for JAK-dependent pathway stimulation or IFNα for TYK2-dependent pathway stimulation. Phospho-STAT1 is then evaluated using FACS analysis.
The remaining diluted Lyse/Fix buffer is discarded.
A 3-fold dilution series of the compound is prepared in DMSO (10 mM stock solution). Control-treated samples received DMSO instead of compound. All samples are incubated with a 1% final DMSO concentration.
Human blood is collected in heparinized tubes. The blood is divided in aliquots of 148.5 μL. Then, 1.5 μL of the test compound dilution is added to each blood aliquot and the blood samples are incubated for 30 min at 37° C. under gentle rocking. One and a half microliter of 10-fold diluted IL-6 stock solution or Universal type 1 IFN is added to the blood samples (final concentration 10 ng/mL and 1000 U/mL, respectively) and samples are incubated at 37° C. for 20 min under gentle rocking.
At the end of the stimulation period, 3 mL of 1× pre-warmed Lyse/Fix buffer is immediately added to the blood samples, vortexed briefly and incubated for 15 min at 37° C. in a water bath in order to lyse red blood cells and fix leukocytes.
Tubes are centrifuged for 5 min at 400×g at 4° C. The cell pellet is washed with 3 mL of cold 1×PBS, and after centrifugation the cell pellet is resuspended in 100 μL of ice-cold 1×PBS and 900 μL ice-cold 100% MeOH is added. Cells are then incubated at 4° C. for 30 min for permeabilization.
Permeabilized cells are then washed with 1×PBS containing 3% BSA and finally resuspended in 80 μL of 1×PBX containing 3% BSA.
Cells are then washed once with 1×PBS and analyzed on a FACSCanto II flow cytometer (BD Biosciences).
50,000 total events are counted and Phospho-STAT1 positive cells are measured after gating on CD4+ cells, in the lymphocyte gate.

Test [2] has as its system IFNα activation of STAT1 in PBMC. Put plainly: IFNα activation of STAT1 in PBMC. It is filed as cell-based. The conditions noted are these: Homo sapiens; IFNα activation of STAT1 in PBMC; average IC50; read-out: IFNα signaling inhibitory potency IC50. In a few lines: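 Human PBMC, with red cells lysed by NH4Cl, were pre-treated with compound for 30 min at 37 °C and 5% CO2. They were then stimulated for 30 min with recombinant human IFNα at 5 ng/mL final.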

The subject of test [3] is IL-12 activation of STAT4 in NK-92 cells. In words: IL-12 activation of STAT4 in NK-92 cells using AphaLISA SureFire technology. It is filed as cell-based. The conditions noted are these: Homo sapiens, NK92; IL-12 activation of STAT4 in NK-92 cells, AlphaLISA SureFire; average IC50; read-out: IL12 pSTAT4 IC50. The method in brief: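 NK-92 cells, starved of rhIL-2 overnight, were stimulated with rhIL-12 for 30 min at 37 °C with test compounds, then lysed. Phospho-STAT4 (Tyr693) was read by AlphaLISA SureFire. Percent inhibition versus the vehicle-plus-trigger signal was fitted by sigmoidal nonlinear regression to give IC50, averaged over experiments.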

Test [4] has as its target T1, Recombinant human TYK2 catalytic domain (amino acids 871-1187) (Homo sapiens, UniProt P29597).
T1 construct: catalytic domain (amino acids 871-1187)
T1 sequence (P29597 871-1187): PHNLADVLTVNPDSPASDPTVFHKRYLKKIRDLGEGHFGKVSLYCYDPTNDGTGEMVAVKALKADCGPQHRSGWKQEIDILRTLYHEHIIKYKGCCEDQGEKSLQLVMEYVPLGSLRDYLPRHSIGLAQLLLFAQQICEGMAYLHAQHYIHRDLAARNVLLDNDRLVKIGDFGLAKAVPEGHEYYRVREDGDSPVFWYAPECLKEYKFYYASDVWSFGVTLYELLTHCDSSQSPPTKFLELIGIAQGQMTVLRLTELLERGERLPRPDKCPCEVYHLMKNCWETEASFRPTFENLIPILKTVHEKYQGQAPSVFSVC
Put plainly: TYK2 ADPglo kinase assay. Note: 12 µM ATP. It is filed as biochemical. The protocol:
After 120 min at room temperature, reactions were stopped and the remaining ATP is depleted by adding 5 μL/well of ADP Glo Reagent (Promega, catalog number V912B). After 40 min at room temperature, 10 μl Kinase Detection Reagent (Kinase Detection Substrate (Promega, catalog number V914B) dissolved in Kinase Detection Buffer (Promega, catalog number V913B)) is added to convert ADP to ATP and to measure this newly synthesized ATP in a luciferase/luciferin reaction. Readout is performed after 30 min incubation at room temperature using the Envision. Kinase activity is calculated by subtracting the relative light units (RLU) obtained in the presence of a positive control inhibitor (10 μM staurosporine) from the RLU obtained in the presence of vehicle. The ability of a test compound to inhibit this activity (or percentage inhibition) is determined as:
RLU test compound=RLU determined for sample with test compound present
RLU control=RLU determined for sample with positive control inhibitor
RLU vehicle=RLU determined in the presence of vehicle
Dose dilution series were prepared for the compounds enabling the testing of dose-response effects in the TYK2 assay and the calculation of the IC50 for the compound. Each compound is routinely tested at concentration of 20 μM followed by a 1/5 serial dilution, 10 points in a final concentration of 1% DMSO. […] The data are expressed as the average IC50 from the assays.
A general note: In ADP-Glo the light output rises with the ADP produced.

Test [5] addresses T1, Recombinant human TYK2 catalytic domain (amino acids 871-1187). In words: TYK2 radioactive assay polyGT substrate. Note: 0.1 µM ATP. It is filed as biochemical. The method in brief: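 Reaction at 30° C. for 120 min, ended with 150 mM phosphoric acid, washed, counted; percent inhibition scaled between vehicle and 10 μM staurosporine cpm.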

Take `Cc1cc(C#N)ncc1Oc1cc(Nc2ccc(N3C[C@@H](C)O[C@H](C)C3)nn2)c2ncn(C)c2n1` (racemic) [Compound 176, 4-methyl-5-[3-methyl-7-[[6-[rac-(2R,6R)-2,6-dimethylmorpholin-4-yl]pyridazin-3-yl]amino]imidazo[4,5-b]pyridin-5-yl]oxypyridine-2-carbonitrile]: the IC50 – broadly, the concentration that gives 50% inhibition – in test [1] stood at 757 nM; in test [2], 66.5 nM; in test [3], 40.5 nM; in test [4], 0.93 nM.

For the compound `Cc1cc(C#N)ncc1Oc1cc(Nc2ccc(C(=O)N3CCN(C4CC4)CC3)cn2)c2ncn(C)c2n1` [Compound 48, 5-[7-[[5-(4-cyclopropylpiperazine-1-carbonyl)pyridin-2-yl]amino]-3-methylimidazo[4,5-b]pyridin-5-yl]oxy-4-methylpyridine-2-carbonitrile], the concentration for half-maximal inhibition (IC50) in test [2] worked out at 63 nM; in test [5], 0.84 nM; in test [3], 56 nM; in test [4] it was 0.48 nM.

In the case of `Cc1cc(C#N)ncc1Oc1cc(Nc2ccc(C(=O)N3CC(C(C)(C)O)C3)cn2)c2ncn(C)c2n1` [Compound 102, 5-[7-[[5-[3-(1-hydroxy-1-methyl-ethyl)azetidine-1-carbonyl]-2-pyridyl]amino]-3-methyl-imidazo[4,5-b]pyridin-5-yl]oxy-4-methyl-pyridine-2-carbonitrile], the IC50 in test [1] was 175 nM; in test [2] it was 75 nM; in test [5], 1.98 nM; in test [3] it was 302 nM.

On to `Cc1cc(C#N)ncc1Oc1cc(Nc2ccc(C(=O)N3CC(N(C)C)C3)cn2)c2ncn(C)c2n1` [Compound 106, 5-[7-[[5-[3-(dimethylamino)azetidine-1-carbonyl]-2-pyridyl]amino]-3-methyl-imidazo[4,5-b]pyridin-5-yl]oxy-4-methyl-pyridine-2-carbonitrile], for which the IC50 is 533 nM in test [1], 102 nM in test [2], 1.43 nM in test [5] and 150 nM in test [3].

In the case of `Cc1cc(C#N)ncc1Oc1cc(Nc2ccc(C(=O)N3CC[C@H](O)C3)cn2)c2ncn(C)c2n1` [Compound 112, 5-[7-[[5-[(3S)-3-hydroxypyrrolidine-1-carbonyl]-2-pyridyl]amino]-3-methyl-imidazo[4,5-b]pyridin-5-yl]oxy-4-methyl-pyridine-2-carbonitrile], the IC50 in test [1] was 447 nM; in test [2], 130 nM; in test [5], 4.29 nM; in test [3], 1100 nM.

For `Cc1cc(C#N)ncc1Oc1cc(Nc2ccc(N3C[C@H](C)O[C@@H](C)C3)nn2)c2ncn(C)c2n1` [Compound 166, 5-[7-[[6-[(2S,6S)-2,6-dimethylmorpholin-4-yl]pyridazin-3-yl]amino]-3-methylimidazo[4,5-b]pyridin-5-yl]oxy-4-methylpyridine-2-carbonitrile], the IC50 worked out at 1450 nM in test [1], 84 nM in test [2], 97 nM in test [3] and 2.28 nM in test [4].

On to `Cc1cc(C#N)ncc1Oc1cc(Nc2ccc(N3C[C@@H](C)O[C@H](C)C3)nn2)c2ncn(C)c2n1` [Compound 168, 5-[7-[[6-[(2R,6R)-2,6-dimethylmorpholin-4-yl]pyridazin-3-yl]amino]-3-methylimidazo[4,5-b]pyridin-5-yl]oxy-4-methylpyridine-2-carbonitrile], for which the IC50 in test [1] was 1070 nM; in test [2] it was 82 nM; in test [3], 87 nM; in test [4] it was 2.39 nM.

For the compound `Cc1cc(C#N)ncc1Oc1cc(Nc2ccc(N3CCOC(CO)C3)nn2)c2ncn(C)c2n1` (stereo not shown) [Compound 169, 5-[7-[[6-[2-(hydroxymethyl)morpholin-4-yl]pyridazin-3-yl]amino]-3-methylimidazo[4,5-b]pyridin-5-yl]oxy-4-methylpyridine-2-carbonitrile], the figures for the IC50 in test [2], in test [3] and in test [4] were 147 nM, 665 nM and 1.47 nM, respectively.

For the compound `Cc1cc(C#N)ncc1Oc1cc(Nc2ccc(N3CC4CCC(C3)O4)nn2)c2ncn(C)c2n1` [Compound 170, 4-methyl-5-[3-methyl-7-[[6-(8-oxa-3-azabicyclo[3.2.1]octan-3-yl)pyridazin-3-yl]amino]imidazo[4,5-b]pyridin-5-yl]oxypyridine-2-carbonitrile], the IC50 amounted to 83 nM in test [2], 73 nM in test [3] and 1.46 nM in test [4].

On to `Cc1cc(C#N)ncc1Oc1cc(Nc2ccc(N3CCOC(C#N)C3)nn2)c2ncn(C)c2n1` (stereo not shown) [Compound 171, 4-[6-[[5-(6-cyano-4-methylpyridin-3-yl)oxy-3-methylimidazo[4,5-b]pyridin-7-yl]amino]pyridazin-3-yl]morpholine-2-carbonitrile], for which the results for the IC50 in test [2], in test [3] and in test [4] were 45 nM, 127 nM and 0.88 nM, respectively.

For `Cc1cc(C#N)ncc1Oc1cc(Nc2ccc(N3CCO[C@H](C)C3)nn2)c2ncn(C)c2n1` [Compound 172, 4-methyl-5-[3-methyl-7-[[6-[(2R)-2-methylmorpholin-4-yl]pyridazin-3-yl]amino]imidazo[4,5-b]pyridin-5-yl]oxypyridine-2-carbonitrile], the IC50 was 66 nM in test [2], 58 nM in test [3] and 0.92 nM in test [4].

Turning to `Cc1cc(C#N)ncc1Oc1cc(Nc2ccc(N3C[C@@H]4C[C@H]3CO4)nn2)c2ncn(C)c2n1` [Compound 174, 4-methyl-5-[3-methyl-7-[[6-[(1S,4S)-2-oxa-5-azabicyclo[2.2.1]heptan-5-yl]pyridazin-3-yl]amino]imidazo[4,5-b]pyridin-5-yl]oxypyridine-2-carbonitrile], the IC50 in test [2] was 72 nM; in test [3], 61 nM; in test [4], 1.03 nM.

On to `Cc1cc(C#N)ncc1Oc1cc(Nc2ccc(N3CCOC(C)(C)C3)nn2)c2ncn(C)c2n1` [Compound 175, 5-[7-[[6-(2,2-dimethylmorpholin-4-yl)pyridazin-3-yl]amino]-3-methylimidazo[4,5-b]pyridin-5-yl]oxy-4-methylpyridine-2-carbonitrile], for which the IC50 in test [2] turned out to be 94 nM; in test [3] it was 137 nM; in test [4], 2.64 nM.
